Laboratory results: the NIST ThermoML archive (doi:10.1021/je900938b)

Assay: xn = mol fraction of the nth substance listed
Conditions: 101 kPa, Liquid; for mass density: Pycnometric method

OCC(O)CO [glycerol] + OCCO
Conditions	mass density [kg/m3]	viscosity [mPa·s]
298.15 K, x1 = 0.1001	1129.2	25.1
298.15 K, x1 = 0.2002	1147.2	37.4
298.15 K, x1 = 0.3001	1164	55
298.15 K, x1 = 0.4002	1180.2	82.8
298.15 K, x1 = 0.4991	1195	121.4
298.15 K, x1 = 0.6011	1209.4	184.2
298.15 K, x1 = 0.7015	1222.6	272.9
298.15 K, x1 = 0.7981	1234.5	405.9
298.15 K, x1 = 0.8961	1246.1	611.8
298.15 K, x1 = 1	1257.8	943.8
303.15 K, x1 = 0.1001	1126.3	20.7
303.15 K, x1 = 0.2002	1144.4	30.3
303.15 K, x1 = 0.3001	1161.2	43.1
303.15 K, x1 = 0.4002	1177.3	64.2
303.15 K, x1 = 0.4991	1192.2	91.4
303.15 K, x1 = 0.6011	1206.7	134
303.15 K, x1 = 0.7015	1219.7	195
303.15 K, x1 = 0.7981	1231.5	285.9
303.15 K, x1 = 0.8961	1243.2	422.7
303.15 K, x1 = 1	1254.7	628.9
308.15 K, x1 = 0.1001	1122.9	17
308.15 K, x1 = 0.2002	1141.2	24.1
308.15 K, x1 = 0.3001	1158.2	33.9
308.15 K, x1 = 0.4002	1174.5	48.5
308.15 K, x1 = 0.4991	1189.5	69.4
308.15 K, x1 = 0.6011	1204	100.2
308.15 K, x1 = 0.7015	1217	142.4
308.15 K, x1 = 0.7981	1229.1	206.2
308.15 K, x1 = 0.8961	1240.7	299.9
308.15 K, x1 = 1	1252.2	431.9
313.15 K, x1 = 0.1001	1119.9	14
313.15 K, x1 = 0.2002	1138.2	19.6
313.15 K, x1 = 0.3001	1155.2	27
313.15 K, x1 = 0.4002	1171.6	38.2
313.15 K, x1 = 0.4991	1186.7	52.6
313.15 K, x1 = 0.6011	1201.3	75.2
313.15 K, x1 = 0.7015	1214.3	107
313.15 K, x1 = 0.7981	1226.5	145.2
313.15 K, x1 = 0.8961	1238	204.6
313.15 K, x1 = 1	1249.4	295.9
318.15 K, x1 = 0.1001	1116.3	11.7
318.15 K, x1 = 0.2002	1134.7	16.1
318.15 K, x1 = 0.3001	1151.8	21.7
318.15 K, x1 = 0.4002	1168.2	30.6
318.15 K, x1 = 0.4991	1183.3	41.1
318.15 K, x1 = 0.6011	1197.8	57.3
318.15 K, x1 = 0.7015	1210.9	81
318.15 K, x1 = 0.7981	1223.1	108.2
318.15 K, x1 = 0.8961	1234.7	148.4
318.15 K, x1 = 1	1245.8	185.8
323.15 K, x1 = 0.1001	1113.4	9.65
323.15 K, x1 = 0.2002	1131.8	13.1
323.15 K, x1 = 0.3001	1148.7	17.9
323.15 K, x1 = 0.4002	1165.2	24.4
323.15 K, x1 = 0.4991	1180.1	33.6
323.15 K, x1 = 0.6011	1194.6	45.3
323.15 K, x1 = 0.7015	1207.9	62
323.15 K, x1 = 0.7981	1219.9	82.4
323.15 K, x1 = 0.8961	1231.2	111
323.15 K, x1 = 1	1242.3	151.2
328.15 K, x1 = 0.1001	1109.4	8.31
328.15 K, x1 = 0.2002	1128	11
328.15 K, x1 = 0.3001	1145.1	14.6
328.15 K, x1 = 0.4002	1161.7	20.1
328.15 K, x1 = 0.4991	1176.7	26.5
328.15 K, x1 = 0.6011	1191.4	36
328.15 K, x1 = 0.7015	1204.7	48.1
328.15 K, x1 = 0.7981	1216.9	64.4
328.15 K, x1 = 0.8961	1228.3	84.6
328.15 K, x1 = 1	1239.3	108.4
333.15 K, x1 = 0.1001	1106	7.06
333.15 K, x1 = 0.2002	1124.6	9.17
333.15 K, x1 = 0.3001	1141.8	12.4
333.15 K, x1 = 0.4002	1158.4	16.4
333.15 K, x1 = 0.4991	1173.5	21.5
333.15 K, x1 = 0.6011	1188.2	28.4
333.15 K, x1 = 0.7015	1201.5	37.6
333.15 K, x1 = 0.7981	1213.8	49.4
333.15 K, x1 = 0.8961	1225.3	66.2
333.15 K, x1 = 1	1236.1	84.8
338.15 K, x1 = 0.1001	1102.8	6.1
338.15 K, x1 = 0.2002	1121.4	7.81
338.15 K, x1 = 0.3001	1138.6	10.5
338.15 K, x1 = 0.4002	1155.1	13.8
338.15 K, x1 = 0.4991	1170.2	18.1
338.15 K, x1 = 0.6011	1185	23.5
338.15 K, x1 = 0.7015	1198.3	30.7
338.15 K, x1 = 0.7981	1210.6	39.5
338.15 K, x1 = 0.8961	1222.2	50.9
338.15 K, x1 = 1	1232.8	62.2
